Results published in ChEMBL document CHEMBL1147101, “Development and persistence of antimicrobial resistance in Pseudomonas aeruginosa: a longitudinal observation in mechanically ventilated patients” (Antimicrob Agents Chemother, 2007).
The source made the active and inactive calls. No cut-off for these calls is given here.

Experiments:
Format in all cases: functional, organism-based
Details in all cases: Trachea
Pseudomonas aeruginosa [1] = test: Antimicrobial activity against Pseudomonas aeruginosa 10A9 tracheal isolates from mechanically ventilated chronic respiratory insufficiency patient
Pseudomonas aeruginosa [2] = test: Antimicrobial activity against Pseudomonas aeruginosa 5F8 tracheal isolates from mechanically ventilated chronic respiratory insufficiency patient
Pseudomonas aeruginosa [3] = test: Antimicrobial activity against Pseudomonas aeruginosa 3B1 tracheal isolates from mechanically ventilated tuberculosis patient
Pseudomonas aeruginosa [4] = test: Antimicrobial activity against Pseudomonas aeruginosa 2A7 tracheal isolates from mechanically ventilated tuberculosis patient
Pseudomonas aeruginosa [5] = test: Antimicrobial activity against Pseudomonas aeruginosa 65.68-4 tracheal isolates from mechanically ventilated tuberculosis patient
Pseudomonas aeruginosa [6] = test: Antimicrobial activity against Pseudomonas aeruginosa 65.38-3 tracheal isolates from mechanically ventilated tuberculosis patient
Pseudomonas aeruginosa [7] = test: Antimicrobial activity against Pseudomonas aeruginosa 65.68-1 tracheal isolates from mechanically ventilated tuberculosis patient
Pseudomonas aeruginosa [8] = test: Antimicrobial activity against Pseudomonas aeruginosa 65.36-3 tracheal isolates from mechanically ventilated tuberculosis patient
Pseudomonas aeruginosa [9] = test: Antimicrobial activity against Pseudomonas aeruginosa 3D10 tracheal isolates from mechanically ventilated chronic respiratory insufficiency patient
Pseudomonas aeruginosa [10] = test: Antimicrobial activity against Pseudomonas aeruginosa 19D9 tracheal isolates from mechanically ventilated chronic respiratory insufficiency patient
Pseudomonas aeruginosa [11] = test: Antimicrobial activity against Pseudomonas aeruginosa 3D1 tracheal isolates from mechanically ventilated chronic respiratory insufficiency patient
Pseudomonas aeruginosa [12] = test: Antimicrobial activity against Pseudomonas aeruginosa 8A2 tracheal isolates from mechanically ventilated chronic respiratory insufficiency patient
Pseudomonas aeruginosa [13] = test: Antimicrobial activity against Pseudomonas aeruginosa 8B11 tracheal isolates from mechanically ventilated chronic respiratory insufficiency patient
Pseudomonas aeruginosa [14] = test: Antimicrobial activity against Pseudomonas aeruginosa 9B5 tracheal isolates from mechanically ventilated chronic respiratory insufficiency patient
Pseudomonas aeruginosa [15] = test: Antimicrobial activity against Pseudomonas aeruginosa 19E2 tracheal isolates from mechanically ventilated chronic respiratory insufficiency patient
Pseudomonas aeruginosa [16] = test: Antimicrobial activity against Pseudomonas aeruginosa 19B6 tracheal isolates from mechanically ventilated chronic respiratory insufficiency patient
Pseudomonas aeruginosa [17] = test: Antimicrobial activity against Pseudomonas aeruginosa 9B2 tracheal isolates from mechanically ventilated chronic respiratory insufficiency patient
Pseudomonas aeruginosa [18] = test: Antimicrobial activity against Pseudomonas aeruginosa 65.33-1 tracheal isolates from mechanically ventilated tuberculosis patient
Pseudomonas aeruginosa [19] = test: Antimicrobial activity against Pseudomonas aeruginosa 65.68-3 tracheal isolates from mechanically ventilated tuberculosis patient
Pseudomonas aeruginosa [20] = test: Antimicrobial activity against Pseudomonas aeruginosa 5G3 tracheal isolates from mechanically ventilated chronic respiratory insufficiency patient
Pseudomonas aeruginosa [21] = test: Antimicrobial activity against Pseudomonas aeruginosa P21.21 tracheal isolates from mechanically ventilated tuberculosis patient
Pseudomonas aeruginosa [22] = test: Antimicrobial activity against Pseudomonas aeruginosa 5F2 tracheal isolates from mechanically ventilated chronic respiratory insufficiency patient
Pseudomonas aeruginosa [23] = test: Antimicrobial activity against Pseudomonas aeruginosa 65.18-4 tracheal isolates from mechanically ventilated tuberculosis patient
Pseudomonas aeruginosa [24] = test: Antimicrobial activity against Pseudomonas aeruginosa 12B2 tracheal isolates from mechanically ventilated chronic respiratory insufficiency patient
Pseudomonas aeruginosa [25] = test: Antimicrobial activity against Pseudomonas aeruginosa 9A10 tracheal isolates from mechanically ventilated chronic respiratory insufficiency patient
Pseudomonas aeruginosa [26] = test: Antimicrobial activity against Pseudomonas aeruginosa 29G6 tracheal isolates from mechanically ventilated chronic respiratory insufficiency patient
Pseudomonas aeruginosa [27] = test: Antimicrobial activity against Pseudomonas aeruginosa 24G1 tracheal isolates from mechanically ventilated chronic respiratory insufficiency patient
Pseudomonas aeruginosa [28] = test: Antimicrobial activity against Pseudomonas aeruginosa 15G2 tracheal isolates from mechanically ventilated chronic respiratory insufficiency patient
Pseudomonas aeruginosa [29] = test: Antimicrobial activity against Pseudomonas aeruginosa 19B3 tracheal isolates from mechanically ventilated chronic respiratory insufficiency patient
Pseudomonas aeruginosa [30] = test: Antimicrobial activity against Pseudomonas aeruginosa 3E2 tracheal isolates from mechanically ventilated chronic respiratory insufficiency patient
Pseudomonas aeruginosa [31] = test: Antimicrobial activity against Pseudomonas aeruginosa 2A9 tracheal isolates from mechanically ventilated tuberculosis patient
Pseudomonas aeruginosa [32] = test: Antimicrobial activity against Pseudomonas aeruginosa P21.23 tracheal isolates from mechanically ventilated tuberculosis patient
Pseudomonas aeruginosa [33] = test: Antimicrobial activity against Pseudomonas aeruginosa 5H6 tracheal isolates from mechanically ventilated chronic respiratory insufficiency patient
Pseudomonas aeruginosa [34] = test: Antimicrobial activity against Pseudomonas aeruginosa 12A3 tracheal isolates from mechanically ventilated chronic respiratory insufficiency patient
Pseudomonas aeruginosa [35] = test: Antimicrobial activity against Pseudomonas aeruginosa 8C4 tracheal isolates from mechanically ventilated chronic respiratory insufficiency patient
Pseudomonas aeruginosa [36] = test: Antimicrobial activity against Pseudomonas aeruginosa 29G7 tracheal isolates from mechanically ventilated chronic respiratory insufficiency patient
Pseudomonas aeruginosa [37] = test: Antimicrobial activity against Pseudomonas aeruginosa 15H5 tracheal isolates from mechanically ventilated chronic respiratory insufficiency patient
Pseudomonas aeruginosa [38] = test: Antimicrobial activity against Pseudomonas aeruginosa 22D9 tracheal isolates from mechanically ventilated chronic respiratory insufficiency patient
Pseudomonas aeruginosa [39] = test: Antimicrobial activity against Pseudomonas aeruginosa 13E1 tracheal isolates from mechanically ventilated chronic respiratory insufficiency patient
Pseudomonas aeruginosa [40] = test: Antimicrobial activity against Pseudomonas aeruginosa 2A6 tracheal isolates from mechanically ventilated tuberculosis patient
Pseudomonas aeruginosa [41] = test: Antimicrobial activity against Pseudomonas aeruginosa 2F6 tracheal isolates from mechanically ventilated tuberculosis patient
Pseudomonas aeruginosa [42] = test: Antimicrobial activity against Pseudomonas aeruginosa 19C7 tracheal isolates from mechanically ventilated chronic respiratory insufficiency patient
Pseudomonas aeruginosa [43] = test: Antimicrobial activity against Pseudomonas aeruginosa 22E3 tracheal isolates from mechanically ventilated chronic respiratory insufficiency patient
Pseudomonas aeruginosa [44] = test: Antimicrobial activity against Pseudomonas aeruginosa 16D5 tracheal isolates from mechanically ventilated chronic respiratory insufficiency patient
Pseudomonas aeruginosa [45] = test: Antimicrobial activity against Pseudomonas aeruginosa 10B3 tracheal isolates from mechanically ventilated chronic respiratory insufficiency patient
Pseudomonas aeruginosa [46] = test: Antimicrobial activity against Pseudomonas aeruginosa 2A2 tracheal isolates from mechanically ventilated tuberculosis patient
Pseudomonas aeruginosa [47] = test: Antimicrobial activity against Pseudomonas aeruginosa 29F6 tracheal isolates from mechanically ventilated chronic respiratory insufficiency patient
Pseudomonas aeruginosa [48] = test: Antimicrobial activity against Pseudomonas aeruginosa 12A7 tracheal isolates from mechanically ventilated chronic respiratory insufficiency patient
Pseudomonas aeruginosa [49] = test: Antimicrobial activity against Pseudomonas aeruginosa 1B9 tracheal isolates from mechanically ventilated tuberculosis patient
Pseudomonas aeruginosa [50] = test: Antimicrobial activity against Pseudomonas aeruginosa 8A12 tracheal isolates from mechanically ventilated chronic respiratory insufficiency patient
Pseudomonas aeruginosa [51] = test: Antimicrobial activity against Pseudomonas aeruginosa 2A3 tracheal isolates from mechanically ventilated tuberculosis patient
Pseudomonas aeruginosa [52] = test: Antimicrobial activity against Pseudomonas aeruginosa 10B1 tracheal isolates from mechanically ventilated chronic respiratory insufficiency patient
Pseudomonas aeruginosa [53] = test: Antimicrobial activity against Pseudomonas aeruginosa 9A7 tracheal isolates from mechanically ventilated chronic respiratory insufficiency patient
Pseudomonas aeruginosa [54] = test: Antimicrobial activity against Pseudomonas aeruginosa 19E9 tracheal isolates from mechanically ventilated chronic respiratory insufficiency patient
Pseudomonas aeruginosa [55] = test: Antimicrobial activity against Pseudomonas aeruginosa 65.36-1 tracheal isolates from mechanically ventilated tuberculosis patient
Pseudomonas aeruginosa [56] = test: Antimicrobial activity against Pseudomonas aeruginosa 2A5 tracheal isolates from mechanically ventilated tuberculosis patient
Pseudomonas aeruginosa [57] = test: Antimicrobial activity against Pseudomonas aeruginosa 65.36-2 tracheal isolates from mechanically ventilated tuberculosis patient
Pseudomonas aeruginosa [58] = test: Antimicrobial activity against Pseudomonas aeruginosa 65.33-4 tracheal isolates from mechanically ventilated tuberculosis patient
Pseudomonas aeruginosa [59] = test: Antimicrobial activity against Pseudomonas aeruginosa 65.33-2 tracheal isolates from mechanically ventilated tuberculosis patient

In the case of `NCC[C@H](O)C(=O)N[C@@H]1C[C@H](N)[C@@H](O[C@H]2O[C@H](CN)[C@@H](O)[C@H](O)[C@H]2O)[C@H](O)[C@H]1O[C@H]1O[C@H](CO)[C@@H](O)[C@H](N)[C@H]1O`, the Activity (Pseudomonas aeruginosa [1]) is reported as “Active”, the Activity (Pseudomonas aeruginosa [2]) is reported as “Active” and the Activity (Pseudomonas aeruginosa [3]) is reported as “Active”. The Activity (Pseudomonas aeruginosa [4]) was “inactive”, the Activity (Pseudomonas aeruginosa [5]) was “Active” and the Activity (Pseudomonas aeruginosa [6]) was “inactive”. The Activity (Pseudomonas aeruginosa [7]) was “Active”, the Activity (Pseudomonas aeruginosa [8]) was “inactive” and the Activity (Pseudomonas aeruginosa [9]) was “Active”. The Activity (Pseudomonas aeruginosa [10]) was “Active”, the Activity (Pseudomonas aeruginosa [11]) was “Active” and the Activity (Pseudomonas aeruginosa [12]) was “Active”. The Activity (Pseudomonas aeruginosa [13]) was “Active”, the Activity (Pseudomonas aeruginosa [14]) was “Active” and the Activity (Pseudomonas aeruginosa [15]) was “Active”. For the same compound, the Activity (Pseudomonas aeruginosa [16]) was “Active”, the Activity (Pseudomonas aeruginosa [17]) was “Active” and the Activity (Pseudomonas aeruginosa [18]) was “Active”. The Activity (Pseudomonas aeruginosa [19]) was “Active”, the Activity (Pseudomonas aeruginosa [20]) was “Active” and the Activity (Pseudomonas aeruginosa [21]) was “Active”. For the same compound, the Activity (Pseudomonas aeruginosa [22]) was “Active”, the Activity (Pseudomonas aeruginosa [23]) was “Active” and the Activity (Pseudomonas aeruginosa [24]) was “Active”. For the same compound, the Activity (Pseudomonas aeruginosa [25]) was “Active”, the Activity (Pseudomonas aeruginosa [26]) was “Active” and the Activity (Pseudomonas aeruginosa [27]) was “Active”. For the same compound, the Activity (Pseudomonas aeruginosa [28]) was “Active”, the Activity (Pseudomonas aeruginosa [29]) was “Active” and the Activity (Pseudomonas aeruginosa [30]) was “Active”. For the same compound, the Activity (Pseudomonas aeruginosa [31]) was “inactive”, the Activity (Pseudomonas aeruginosa [32]) was “Active” and the Activity (Pseudomonas aeruginosa [33]) was “Active”. The Activity (Pseudomonas aeruginosa [34]) was “Active”, the Activity (Pseudomonas aeruginosa [35]) was “Active” and the Activity (Pseudomonas aeruginosa [36]) was “Active”. For the same compound, the Activity (Pseudomonas aeruginosa [37]) was “Active”, the Activity (Pseudomonas aeruginosa [38]) was “Active” and the Activity (Pseudomonas aeruginosa [39]) was “Active”. For the same compound, the Activity (Pseudomonas aeruginosa [40]) was “inactive”, the Activity (Pseudomonas aeruginosa [41]) was “inactive” and the Activity (Pseudomonas aeruginosa [42]) was “Active”. The Activity (Pseudomonas aeruginosa [43]) was “Active”, the Activity (Pseudomonas aeruginosa [44]) was “Active” and the Activity (Pseudomonas aeruginosa [45]) was “Active”. For the same compound, the Activity (Pseudomonas aeruginosa [46]) was “Active”, the Activity (Pseudomonas aeruginosa [47]) was “Active” and the Activity (Pseudomonas aeruginosa [48]) was “Active”. The Activity (Pseudomonas aeruginosa [49]) was “inactive”, the Activity (Pseudomonas aeruginosa [50]) was “Active” and the Activity (Pseudomonas aeruginosa [51]) was “Active”. For the same compound, the Activity (Pseudomonas aeruginosa [52]) was “Active”, the Activity (Pseudomonas aeruginosa [53]) was “Active” and the Activity (Pseudomonas aeruginosa [54]) was “Active”.

In the case of `O=C(O)c1cn(C2CC2)c2cc(N3CCNCC3)c(F)cc2c1=O`, the Activity (Pseudomonas aeruginosa [55]) is reported as “Active”, the Activity (Pseudomonas aeruginosa [1]) is reported as “Active” and the Activity (Pseudomonas aeruginosa [2]) is reported as “Active”. For the same compound, the Activity (Pseudomonas aeruginosa [3]) was “Active”, the Activity (Pseudomonas aeruginosa [4]) was “Active” and the Activity (Pseudomonas aeruginosa [5]) was “Active”. For the same compound, the Activity (Pseudomonas aeruginosa [6]) was “Active”, the Activity (Pseudomonas aeruginosa [7]) was “Active” and the Activity (Pseudomonas aeruginosa [8]) was “Active”. For the same compound, the Activity (Pseudomonas aeruginosa [9]) was “Active”, the Activity (Pseudomonas aeruginosa [10]) was “inactive” and the Activity (Pseudomonas aeruginosa [56]) was “Active”. The Activity (Pseudomonas aeruginosa [57]) was “Active”, the Activity (Pseudomonas aeruginosa [11]) was “Active” and the Activity (Pseudomonas aeruginosa [12]) was “Active”. For the same compound, the Activity (Pseudomonas aeruginosa [13]) was “Active”, the Activity (Pseudomonas aeruginosa [14]) was “Active” and the Activity (Pseudomonas aeruginosa [15]) was “Active”. The Activity (Pseudomonas aeruginosa [16]) was “Active”, the Activity (Pseudomonas aeruginosa [17]) was “Active” and the Activity (Pseudomonas aeruginosa [18]) was “Active”. The Activity (Pseudomonas aeruginosa [19]) was “Active”, the Activity (Pseudomonas aeruginosa [58]) was “Active” and the Activity (Pseudomonas aeruginosa [20]) was “Active”. For the same compound, the Activity (Pseudomonas aeruginosa [21]) was “Active”, the Activity (Pseudomonas aeruginosa [22]) was “Active” and the Activity (Pseudomonas aeruginosa [23]) was “Active”. The Activity (Pseudomonas aeruginosa [24]) was “Active”, the Activity (Pseudomonas aeruginosa [25]) was “Active” and the Activity (Pseudomonas aeruginosa [26]) was “Active”. The Activity (Pseudomonas aeruginosa [28]) was “inactive”, the Activity (Pseudomonas aeruginosa [29]) was “Active” and the Activity (Pseudomonas aeruginosa [59]) was “Active”. The Activity (Pseudomonas aeruginosa [30]) was “Active”, the Activity (Pseudomonas aeruginosa [31]) was “Active” and the Activity (Pseudomonas aeruginosa [32]) was “Active”. The Activity (Pseudomonas aeruginosa [33]) was “Active”, the Activity (Pseudomonas aeruginosa [34]) was “Active” and the Activity (Pseudomonas aeruginosa [35]) was “Active”. For the same compound, the Activity (Pseudomonas aeruginosa [36]) was “Active”, the Activity (Pseudomonas aeruginosa [37]) was “Active” and the Activity (Pseudomonas aeruginosa [38]) was “Active”. For the same compound, the Activity (Pseudomonas aeruginosa [39]) was “Active”, the Activity (Pseudomonas aeruginosa [40]) was “Active” and the Activity (Pseudomonas aeruginosa [41]) was “Active”. For the same compound, the Activity (Pseudomonas aeruginosa [42]) was “Active”, the Activity (Pseudomonas aeruginosa [43]) was “Active” and the Activity (Pseudomonas aeruginosa [44]) was “Active”. For the same compound, the Activity (Pseudomonas aeruginosa [45]) was “Active”, the Activity (Pseudomonas aeruginosa [46]) was “Active” and the Activity (Pseudomonas aeruginosa [47]) was “Active”. The Activity (Pseudomonas aeruginosa [48]) was “Active”, the Activity (Pseudomonas aeruginosa [49]) was “Active” and the Activity (Pseudomonas aeruginosa [50]) was “Active”. The Activity (Pseudomonas aeruginosa [51]) was “Active”, the Activity (Pseudomonas aeruginosa [52]) was “Active” and the Activity (Pseudomonas aeruginosa [53]) was “Active”. The Activity (Pseudomonas aeruginosa [54]) was “Active”.
